{"source": "patent US7776794B2", "about": "“Biosensor using living cells on silicon-based microarrays” (The Research Foundation of State University of New York, priority 2003, dated 2010)", "test_system": "FT cells", "assay": "Amperometric recording of norepinephrine release from pre-loaded FT cells on the microarray upon ATP stimulation", "type": "cell-based, Rana catesbeiana", "details": "ATP final concentration 300 μM in FT medium; FT cells preloaded in 4 mM NE for 15 min; single electrode held at 700 mV (FIG. 9, trace 1)", "procedure": "The cells, which have grown to become a confluent monolayer on the surface of the microarray, are “pre-loaded” with medium containing the appropriate amount of an oxidizable molecule, for example, 0.5-10 mM of a catecholamine such as norepinephrine (NE), for a time sufficient for the cells to endocytose the catecholamine, about 1-30 minutes. The pre-loading medium is then replaced with fresh medium, and the solution is grounded with a Ag/AgCl wire.\nWithin minutes of pre-loading, the cells are then exposed to a biological sample containing an analyte, the detection of which is desired. Binding of analyte to a receptor on the cells' surface increases intracellular calcium, thereby stimulating release of the pre-loaded NE. This secretion event is detected with millisecond temporal resolution via electrochemical oxidation of the secreted compound on an electrode that is voltage-clamped slightly above its redox potential. Increases in current due to oxidation of NE on the Cr/Au electrode is recorded. This is represented schematically in FIG. 4.\nA microarray containing a confluent growth of FT cells was subsequently tested. To test the response properties of the cells to ATP (0.3 mM), microarrays with confluent cultures of cells were measured prior to preloading with NE. Then, cells were pre-loaded with varying concentrations of NE and ATP was reapplied. […]", "data": [{"compound": "Nc1ncnc2c1ncn2[C@@H]1O[C@H](COP(=O)(O)OP(=O)(O)OP(=O)(O)O)[C@@H](O)[C@H]1O", "note": "[ATP]", "values": [{"measurement": "duration of current response", "value": "9 to 10", "unit": "min"}, {"measurement": "peak current above baseline", "value": "approximately 800 pA"}]}]}
